Converted amounts (≈) assume the structure as drawn. The source made the active and inactive calls. The rule behind the calls is not given here.
Tests used:
Staphylococcus aureus [1] = test: Antibacterial activity against Staphylococcus aureus 718306 assessed as inhibition of bacterial growth incubated for 18 hrs by broth microdilution method; format: functional
Staphylococcus aureus [2] = test: Antibacterial activity against Staphylococcus aureus 669 assessed as inhibition of bacterial growth incubated for 18 hrs by broth microdilution method; format: functional
Bacillus subtilis = test: Antibacterial activity against Bacillus subtilis BS01 assessed as inhibition of bacterial growth incubated for 18 hrs by broth microdilution method; format: functional
Enterococcus gallinarum = test: Antibacterial activity against Enterococcus gallinarum 5F52C assessed as inhibition of bacterial growth incubated for 18 hrs by broth microdilution method; format: functional
Staphylococcus aureus [3] = test: Antibacterial activity against methicillin-resistant Staphylococcus aureus assessed as inhibition of bacterial growth incubated for 18 hrs by broth microdilution method; format: functional
HUVEC = test: Cytotoxicity against HUVEC cells incubated for 48 hrs by CCK-8 assay; format: toxicity, cell-based; conditions: human
A549 = test: Cytotoxicity against human A549 cells incubated for 48 hrs by CCK-8 assay; format: functional, cell-based
Enterococcus faecium [4] = test: Antibacterial activity against Enterococcus faecium 36711 assessed as inhibition of bacterial growth incubated for 18 hrs by broth microdilution method; format: functional
Staphylococcus aureus [5] = test: Antibacterial activity against Staphylococcus aureus GDE4P037P assessed as inhibition of bacterial growth incubated for 18 hrs by broth microdilution method; format: functional
Micrococcus luteus = test: Antibacterial activity against Micrococcus luteus ML01 assessed as inhibition of bacterial growth incubated for 18 hrs by broth microdilution method; format: functional
Enterococcus faecalis [6] = test: Antibacterial activity against Enterococcus faecalis 36950 assessed as inhibition of bacterial growth incubated for 18 hrs by broth microdilution method; format: functional
Enterococcus faecium [7] = test: Antibacterial activity against Enterococcus faecium 35682 assessed as inhibition of bacterial growth incubated for 18 hrs by broth microdilution method; format: functional
Staphylococcus aureus [8] = test: Antibacterial activity against Staphylococcus aureus 6917 assessed as inhibition of bacterial growth incubated for 18 hrs by broth microdilution method; format: functional
HCT-116 = test: Cytotoxicity against human HCT-116 cells incubated for 48 hrs by CCK-8 assay; format: functional, cell-based
Staphylococcus aureus [9] = test: Antibacterial activity against Staphylococcus aureus 3090 assessed as inhibition of bacterial growth incubated for 18 hrs by broth microdilution method; format: functional
Staphylococcus aureus [10] = test: Antibacterial activity against Staphylococcus aureus 991 assessed as inhibition of bacterial growth incubated for 18 hrs by broth microdilution method; format: functional
Enterococcus faecium [11] = test: Antibacterial activity against Enterococcus faecium 36235 assessed as inhibition of bacterial growth incubated for 18 hrs by broth microdilution method; format: functional
RBE = test: Cytotoxicity against human RBE cells incubated for 48 hrs by CCK-8 assay; format: functional, cell-based
Enterococcus faecalis [12] = test: Antibacterial activity against Enterococcus faecalis ATCC 29212 assessed as inhibition of bacterial growth incubated for 18 hrs by broth microdilution method; format: functional
MCF7 = test: Cytotoxicity against human MCF7 cells incubated for 48 hrs by CCK-8 assay; format: functional, cell-based
Staphylococcus aureus [13] = test: Antibacterial activity against Staphylococcus aureus 16162 assessed as inhibition of bacterial growth incubated for 18 hrs by broth microdilution method; format: functional
Staphylococcus aureus [14] = test: Antibacterial activity against Staphylococcus aureus 745324 assessed as inhibition of bacterial growth incubated for 18 hrs by broth microdilution method; format: functional
[15] = Cytotoxicity against human LX2 cells incubated for 48 hrs by CCK-8 assay; format: toxicity, cell-based; conditions: lx-2, 48 h
Staphylococcus aureus [16] = test: Antibacterial activity against Staphylococcus aureus 1862 assessed as inhibition of bacterial growth incubated for 18 hrs by broth microdilution method; format: functional
HepG2 = test: Cytotoxicity against human HepG2 cells incubated for 48 hrs by CCK-8 assay; format: functional, cell-based
Staphylococcus simulans = test: Antibacterial activity against Staphylococcus simulans AKA1 assessed as inhibition of bacterial growth incubated for 18 hrs by broth microdilution method; format: functional
Staphylococcus aureus [17] = test: Antibacterial activity against Staphylococcus aureus ATCC 29213 assessed as inhibition of bacterial growth incubated for 18 hrs by broth microdilution method; format: functional
HeLa = test: Cytotoxicity against human HeLa cells incubated for 48 hrs by CCK-8 assay; format: functional, cell-based
Staphylococcus aureus [18] = test: Antibacterial activity against Staphylococcus aureus 16339 assessed as inhibition of bacterial growth incubated for 18 hrs by broth microdilution method; format: functional

| SMILES | MIC (Staphylococcus aureus [1]) [µg/mL] | MIC (Staphylococcus aureus [2]) [µg/mL] | MIC (Bacillus subtilis) [µg/mL] | MIC (Enterococcus gallinarum) [µg/mL] | MIC (Staphylococcus aureus [3]) [µg/mL] | Activity (HUVEC) | Activity (A549) | MIC (Enterococcus faecium [4]) [µg/mL] | MIC (Staphylococcus aureus [5]) [µg/mL] | MIC (Micrococcus luteus) [µg/mL] | MIC (Enterococcus faecalis [6]) [µg/mL] | MIC (Enterococcus faecium [7]) [µg/mL] | MIC (Staphylococcus aureus [8]) [µg/mL] | Activity (HCT-116) | MIC (Staphylococcus aureus [9]) [µg/mL] | MIC (Staphylococcus aureus [10]) [µg/mL] | MIC (Enterococcus faecium [11]) [µg/mL] | Activity (RBE) | MIC (Enterococcus faecalis [12]) [µg/mL] | Activity (MCF7) | also measured |
| --- | --- | --- | --- | --- | --- | --- | --- | --- | --- | --- | --- | --- | --- | --- | --- | --- | --- | --- | --- | --- | --- |
| CCCc1cc(Oc2c(O)c(Cl)c(O)c(Cl)c2CCC)c(Cl)c(OC)c1Cl | 1 (≈ 2.2 µM) | 2 (≈ 4.4 µM) | 1 (≈ 2.2 µM) | 4 (≈ 8.81 µM) | 2 (≈ 4.4 µM) | Non-Toxic | inactive | 2 (≈ 4.4 µM) | 2 (≈ 4.4 µM) | 1 (≈ 2.2 µM) | 0.5 (≈ 1.1 µM) | 2 (≈ 4.4 µM) | 2 (≈ 4.4 µM) | inactive | 2 (≈ 4.4 µM) | 2 (≈ 4.4 µM) | 1 (≈ 2.2 µM) | inactive | 2 (≈ 4.4 µM) | inactive | MIC (Staphylococcus aureus [13]): 2 µg/mL (≈ 4.4 µM); MIC (Staphylococcus aureus [14]): 2 µg/mL (≈ 4.4 µM); Activity [15]: Non-Toxic; MIC (Staphylococcus aureus [16]): 2 µg/mL (≈ 4.4 µM); Activity (HepG2): inactive; MIC (Staphylococcus simulans): 2 µg/mL (≈ 4.4 µM); MIC (Staphylococcus aureus [17]): 2 µg/mL (≈ 4.4 µM); Activity (HeLa): inactive; MIC (Staphylococcus aureus [18]): 2 µg/mL (≈ 4.4 µM) |
| CCCc1c(O)c(Oc2c(Cl)c(O)c(Cl)c3c2C(=O)O[C@H](C)C3)cc(OC)c1Cl | 16 (≈ 34.7 µM) | 16 (≈ 34.7 µM) | 8 (≈ 17.3 µM) | 16 (≈ 34.7 µM) | 8 (≈ 17.3 µM) | Non-Toxic | inactive | 16 (≈ 34.7 µM) | 32 (≈ 69.3 µM) | 8 (≈ 17.3 µM) | 16 (≈ 34.7 µM) | 16 (≈ 34.7 µM) | 16 (≈ 34.7 µM) | inactive | 8 (≈ 17.3 µM) | 8 (≈ 17.3 µM) | 32 (≈ 69.3 µM) | inactive | 32 (≈ 69.3 µM) | inactive | MIC (Staphylococcus aureus [13]): 16 µg/mL (≈ 34.7 µM); MIC (Staphylococcus aureus [14]): 16 µg/mL (≈ 34.7 µM); Activity [15]: Non-Toxic; MIC (Staphylococcus aureus [16]): 16 µg/mL (≈ 34.7 µM); Activity (HepG2): inactive; MIC (Staphylococcus simulans): 8 µg/mL (≈ 17.3 µM); MIC (Staphylococcus aureus [17]): 8 µg/mL (≈ 17.3 µM); Activity (HeLa): inactive; MIC (Staphylococcus aureus [18]): 16 µg/mL (≈ 34.7 µM) |
